pIC50: −log10 of the molar value.
Biological target: T1, Nitric oxide synthase from induced murine macrophage cell line J774A-1 (Mus musculus, UniProt P29477)
T1 construct: The reaction is started by adding 50 μl of cell lysate (prepared as above); endogenous in cells; host or cells: J774A-1 murine macrophage cell line, induced with LPS and IFN-gamma; crude cell lysate
Experiment: Screen 1: nitric oxide synthase inhibition, conversion of 3H-L-arginine into 3H-L-citrulline, lysate of induced J774A-1 cells
Assay type: biochemical
Settings: J774A-1 cell lysate (LPS/IFNg induced), 1 hour at room temperature; read-out: IC50 (concentration of drug substance which gives 50% enzyme inhibition in the assay)
Protocol: The activity of compounds of formula (I), or a pharmaceutically acceptable salt, enantiomer or racemate thereof, may be screened for nitric oxide synthase inhibiting activity by a procedure based on that of Förstermann et al., Eur. J. Pharm., 1992, 225, 161-165. Nitric oxide synthase converts ^3H-L-arginine into ^3H-L-citrulline which can be separated by cation exchange chromatography and quantified by liquid scintillation counting.
Enzyme is prepared, after induction, from the cultured murine macrophage cell line J774A-1 (obtained from the laboratories of the Imperial Cancer Research Fund). J774A-1 cells are cultured in Dulbeccos Modified Eagles Medium (DMEM) supplemented with 10% foetal bovine serum, 4 mM L-glutamine and antibiotics (100 units/ml penicillin G, […] streptomycin & […] amphotericin B). Cells are routinely grown in […] flasks containing 35 ml medium kept at 37° C. and in a humidified atmosphere containing 5% CO2. […]
Labelled L-citrulline is separated from labelled L-arginine using Dowex AG-SOW. […] After allowing the samples to dry the L-citrulline is quantified by scintillation counting.
In a typical experiment basal activity is 300 dpm per 75 μl sample which is increased to 1900 dpm in the reagent controls. […] Compounds are tested at a range of concentrations and from the inhibitions obtained IC50 values are calculated. […]

## N=C(N)NN [aminoguanidie]
  pIC50: 5.00

Reference: US20040242871A1, “Novel arylheteroalkylamine derivatives” (priority 2001, published 2004)
